Patent US20250195660A1, “INACTIVATING BACTERIA WITH ELECTRIC PULSES AND ANTIBIOTICS” (Purdue Research Foundation, priority 2018, published 2025)

Tested on: methicillin resistant Staphylococcus aureus (USA300-0114 strain)
Assay: Inactivation of MRSA by 300 ns electric pulses and/or antibiotics (CFU plating)
Assay type: cell-based
Conditions: 20 μg/mL + 30 kV/cm EPs
Source text: Except for rifampicin, the five other antibiotics in these examples primarily target gram-positive bacteria and are largely ineffective or not used against gram-negative bacteria in a clinical setting.
A Blumlein pulsed generator consisting of two lines comprised of twelve 2000 pF capacitors connected by inductors produced 300 ns EPs with rise-times of 30 ns and fall-times of 35 ns at a repetition frequency of 1 Hz (12). The EPs were applied to a standard 2 mm gap electroporation cuvette (Dot Scientific R) filled with a solution containing the microorganisms. Used was a Luria broth of 0.5% salinity (5 grams of NaCl/Liter) for the solution to electrically match the resistance of the sample with the impedance of the pulse generator (11Ω) to prevent signal reflection. The voltage measurements were taken using a LeCroy PPE 20 kV high voltage probe with a 1000:1 attenuation recorded by a TeleDyne LeCroy® Waverunner 6 Zi Oscilloscope with a bandwidth of 4 GHZ.
The gram-negative strains included a carbapenem-resistant Escherichia coli (ATCC® BA-2452TM, New Delhi metallo-beta-lactamase NDM-1 positive.), Klebsiella pneumoniae (ATCC® BAA-2146TM NDM-I positive), and a gentamicin, streptomycin and sulfonamide resistant Pseudomonas aeruginosa (BEI Resources NR-31040). Assessed was the gram-positive strain of methicillin resistant Staphylococcus aureus (USA300-0114 strain), which is also resistant to erythromycin and tetracycline. Samples were cultured in Luria broth (LB Broth Lennox, powder microbial growth medium, SIGMA-ALDRICH®) by taking 25 mL of broth in a 50 mL sterile conical tube and incubating in a shaker for 16 h at 37° C. Samples were diluted 50% by adding 25 mL media to the incubated sample as we plated controls for each experiment and condition. […]
Removed was 20 μL from each cuvette and added to 180 μL of PBS in a 96-well dish in triplicate. […] These plates were then cultured overnight in an incubator at 37° C., and counted the next day.

## CO[C@H]1/C=C/O[C@@]2(C)Oc3c(C)c(O)c4c(O)c(c(/C=N/N5CCN(C)CC5)c(O)c4c3C2=O)NC(=O)/C(C)=C\C=C\[C@H](C)[C@H](O)[C@@H](C)[C@@H](O)[C@@H](C)[C@H](OC(C)=O)[C@@H]1C [rifampicin]
  synergy (synergistic inactivation), MRSA: approximately 1.5 log
